How the values were obtained:
[1] = biological target: T1, 5-hydroxytryptamine receptor 1A (Rattus norvegicus, UniProt P19327); type: cell membranes, CHO-K1, Membrane; conditions: for Ki: read-out: Ki; for all read-outs here: in other assays of this panel Not Active means under 50% inhibition at 10 µM
T1 sequence (P19327 whole entry): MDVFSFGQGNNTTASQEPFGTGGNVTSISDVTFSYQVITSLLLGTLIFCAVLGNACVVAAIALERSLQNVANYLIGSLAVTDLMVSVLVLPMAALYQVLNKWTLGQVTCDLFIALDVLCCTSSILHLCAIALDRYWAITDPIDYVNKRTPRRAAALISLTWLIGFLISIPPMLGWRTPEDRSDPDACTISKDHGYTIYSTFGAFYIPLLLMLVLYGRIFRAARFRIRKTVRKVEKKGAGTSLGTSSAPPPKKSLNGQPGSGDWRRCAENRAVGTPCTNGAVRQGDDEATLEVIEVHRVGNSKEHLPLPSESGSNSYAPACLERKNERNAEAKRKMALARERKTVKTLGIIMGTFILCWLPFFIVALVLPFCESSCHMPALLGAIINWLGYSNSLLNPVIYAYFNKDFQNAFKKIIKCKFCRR

[2] = biological target: T2, Alpha-1D adrenergic receptor (Homo sapiens, UniProt P25100); type: cell membranes, HEK293, Membrane; conditions: for Ki: read-out: Ki; for all read-outs here: in other assays of this panel Not Active means under 50% inhibition at 10 µM
T2 sequence (P25100 whole entry): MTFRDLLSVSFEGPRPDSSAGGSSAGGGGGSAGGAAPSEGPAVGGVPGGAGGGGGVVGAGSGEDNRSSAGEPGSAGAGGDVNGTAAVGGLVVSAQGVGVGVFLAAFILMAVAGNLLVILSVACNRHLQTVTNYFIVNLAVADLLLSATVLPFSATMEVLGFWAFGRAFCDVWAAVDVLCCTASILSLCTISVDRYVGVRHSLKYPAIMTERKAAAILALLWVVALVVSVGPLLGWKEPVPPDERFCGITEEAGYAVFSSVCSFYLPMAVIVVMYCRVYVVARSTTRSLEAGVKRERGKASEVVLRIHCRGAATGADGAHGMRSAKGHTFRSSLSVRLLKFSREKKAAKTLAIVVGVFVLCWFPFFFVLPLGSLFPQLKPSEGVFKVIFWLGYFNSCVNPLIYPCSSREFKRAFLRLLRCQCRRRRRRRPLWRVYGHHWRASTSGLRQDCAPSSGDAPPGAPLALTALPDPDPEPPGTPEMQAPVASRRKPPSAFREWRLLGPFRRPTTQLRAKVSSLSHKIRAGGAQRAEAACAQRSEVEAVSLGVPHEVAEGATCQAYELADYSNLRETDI

Melanocortin receptor 5 = Melanocortin receptor 5 (Homo sapiens, UniProt P33032); type: cell membranes, HEK293, Membrane; note: in other assays of this panel Not Active means under 50% inhibition at 10 µM
Melanocortin receptor 5, sequence (P33032 whole entry): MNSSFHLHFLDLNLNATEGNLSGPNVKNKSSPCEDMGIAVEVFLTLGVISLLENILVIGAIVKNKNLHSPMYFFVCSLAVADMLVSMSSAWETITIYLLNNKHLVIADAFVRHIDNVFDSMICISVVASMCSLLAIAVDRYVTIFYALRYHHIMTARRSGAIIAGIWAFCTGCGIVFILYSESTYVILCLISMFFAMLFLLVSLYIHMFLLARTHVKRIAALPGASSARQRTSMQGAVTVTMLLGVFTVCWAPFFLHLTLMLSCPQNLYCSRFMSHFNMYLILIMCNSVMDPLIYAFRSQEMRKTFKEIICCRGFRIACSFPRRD

[3] = biological target: T3, 3-hydroxy-3-methylglutaryl-coenzyme A reductase (Homo sapiens, UniProt P04035); design: species or system Escherichia coli;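 note: enzyme inhibition assay of HMG-CoA reductase using radiolabeled [14C]HMG-CoA as substrate; in other assays of this panel Not Active means under 50% inhibition at 10 µM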
T3 sequence (P04035 whole entry): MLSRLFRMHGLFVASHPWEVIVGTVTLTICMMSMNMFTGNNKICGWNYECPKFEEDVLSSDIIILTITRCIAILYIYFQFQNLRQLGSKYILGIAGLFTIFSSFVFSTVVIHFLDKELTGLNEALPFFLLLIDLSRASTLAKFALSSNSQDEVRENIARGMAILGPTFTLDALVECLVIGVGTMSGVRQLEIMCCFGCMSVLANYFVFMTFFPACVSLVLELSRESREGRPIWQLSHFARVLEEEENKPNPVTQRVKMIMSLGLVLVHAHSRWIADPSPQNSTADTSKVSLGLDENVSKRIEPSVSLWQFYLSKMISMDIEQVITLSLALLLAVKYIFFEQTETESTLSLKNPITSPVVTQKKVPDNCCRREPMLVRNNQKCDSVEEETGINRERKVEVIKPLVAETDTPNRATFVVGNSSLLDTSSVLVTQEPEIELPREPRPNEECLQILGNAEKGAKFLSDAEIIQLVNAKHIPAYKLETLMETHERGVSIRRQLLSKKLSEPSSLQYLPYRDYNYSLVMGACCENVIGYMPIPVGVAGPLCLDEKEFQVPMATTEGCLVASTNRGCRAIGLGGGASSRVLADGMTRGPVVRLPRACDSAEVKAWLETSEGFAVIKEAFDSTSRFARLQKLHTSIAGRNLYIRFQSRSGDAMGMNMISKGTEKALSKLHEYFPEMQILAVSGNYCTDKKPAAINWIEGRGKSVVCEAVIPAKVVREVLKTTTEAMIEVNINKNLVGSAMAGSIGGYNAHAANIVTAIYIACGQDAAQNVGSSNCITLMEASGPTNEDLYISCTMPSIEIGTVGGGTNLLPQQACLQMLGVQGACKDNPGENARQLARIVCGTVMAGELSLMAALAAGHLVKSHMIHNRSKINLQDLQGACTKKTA

[4] = biological target: T4, Alpha-2C adrenergic receptor (Homo sapiens, UniProt P18825); experiment: DRUGMATRIX: Adrenergic Alpha-2C radioligand binding (ligand: [3H] MK-912); type: cell membranes, Sf9, Membrane; for IC50: call rule not given here
T4 sequence (P18825 whole entry): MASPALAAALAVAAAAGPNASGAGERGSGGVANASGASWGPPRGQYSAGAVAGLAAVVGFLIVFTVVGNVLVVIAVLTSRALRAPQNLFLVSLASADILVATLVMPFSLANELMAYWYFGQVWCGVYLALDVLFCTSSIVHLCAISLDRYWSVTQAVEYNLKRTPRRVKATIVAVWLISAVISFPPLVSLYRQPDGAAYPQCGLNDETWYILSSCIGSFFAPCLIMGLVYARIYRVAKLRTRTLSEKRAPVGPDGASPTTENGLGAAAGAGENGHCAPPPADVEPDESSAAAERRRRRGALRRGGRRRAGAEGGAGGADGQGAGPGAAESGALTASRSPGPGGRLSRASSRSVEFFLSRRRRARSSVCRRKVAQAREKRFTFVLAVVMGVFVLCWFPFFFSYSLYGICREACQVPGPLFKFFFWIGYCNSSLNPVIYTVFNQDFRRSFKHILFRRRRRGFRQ

| SMILES | IC50 ([1]; cho-k1) | IC50 ([2]; hek293) | IC50 (Melanocortin receptor 5; hek293) | IC50 [3] | IC50 ([4]; sf9) | IC50 ([2]; read-out: IC50) [nM] | Ki [2] [nM] | IC50 ([4]; read-out: IC50) [nM] | Ki ([4]; read-out: Ki) [nM] | IC50 (Melanocortin receptor 5; read-out: IC50) [nM] | Ki (Melanocortin receptor 5; read-out: Ki) [nM] | IC50 ([1]; read-out: IC50) [nM] | Ki [1] [nM] |
| --- | --- | --- | --- | --- | --- | --- | --- | --- | --- | --- | --- | --- | --- |
| N[C@@H](Cc1ccc(N(CCCl)CCCl)cc1)C(=O)O | Not Active | Not Active | Not Active | Not Active | Not Active | – | – | – | – | – | – | – | – |
| CC(C)N1CCN(c2ccc(OCC3COC(Cn4cncn4)(c4ccc(Cl)cc4Cl)O3)cc2)CC1 (stereo not drawn) [TERCONAZOLE] | Not Active | – | Not Active | Not Active | – | 14400 | 7070 | 418 | 61 | – | – | – | – |
| Cc1nc2n(c(=O)c1CCN1CCC(c3noc4cc(F)ccc34)CC1)CCCC2 [RISPERIDONE] | – | – | Not Active | Not Active | – | – | – | – | – | – | – | – | – |
| N[C@@H]1[C@H]2CN(c3nc4c(cc3F)c(=O)c(C(=O)O)cn4-c3ccc(F)cc3F)C[C@@H]12 [TROVAFLOXACIN] | Not Active | Not Active | Not Active | Not Active | Not Active | – | – | – | – | – | – | – | – |
| O=c1ncn2nc(Sc3ccc(F)cc3F)ccc2c1-c1c(Cl)cccc1Cl [NEFLAMAPIMOD] | Not Active | Not Active | Not Active | Not Active | Not Active | – | – | – | – | – | – | – | – |
| CCCCc1oc2ccccc2c1C(=O)c1cc(I)c(OCCN(CC)CC)c(I)c1 [AMIODARONE] | Not Active | Not Active | – | Not Active | Not Active | – | – | – | – | 9500 | 8910 | – | – |
| CC[C@]1(O)C[C@H]2CN(CCc3c([nH]c4ccccc34)[C@@](C(=O)OC)(c3cc4c(cc3OC)N(C=O)[C@H]3[C@@](O)(C(=O)OC)[C@H](OC(C)=O)[C@]5(CC)C=CCN6CC[C@]43[C@@H]65)C2)C1 [VINCRISTINE] | Not Active | Not Active | Not Active | Not Active | Not Active | – | – | – | – | – | – | – | – |
| CO[C@H]1/C=C/O[C@@]2(C)Oc3c(C)c(O)c4c(O)c(c(/C=N/N5CCN(C)CC5)c(O)c4c3C2=O)NC(=O)/C(C)=C\C=C\[C@H](C)[C@H](O)[C@@H](C)[C@@H](O)[C@@H](C)[C@H](OC(C)=O)[C@@H]1C [RIFAMPIN] | Not Active | Not Active | Not Active | Not Active | Not Active | – | – | – | – | – | – | – | – |
| Cc1noc(NS(=O)(=O)c2ccc(N)cc2)c1C [SULFISOXAZOLE] | Not Active | Not Active | Not Active | Not Active | Not Active | – | – | – | – | – | – | – | – |
| NS(=O)(=O)c1cc2c(cc1Cl)NC(C(Cl)Cl)NS2(=O)=O (stereo not drawn) [TRICHLORMETHIAZIDE] | Not Active | Not Active | Not Active | Not Active | Not Active | – | – | – | – | – | – | – | – |
| COc1nc(C)nc(Cl)c1NC1=NCCN1 [MOXONIDINE] | – | Not Active | Not Active | Not Active | Not Active | – | – | – | – | – | – | 702 | 401 |
| Nc1nc2ccc(OC(F)(F)F)cc2s1 [RILUZOLE] | Not Active | Not Active | Not Active | Not Active | Not Active | – | – | – | – | – | – | – | – |
| N[C@@H](Cc1cc(I)c(Oc2ccc(O)c(I)c2)c(I)c1)C(=O)O [LIOTHYRONINE] | Not Active | Not Active | Not Active | Not Active | Not Active | – | – | – | – | – | – | – | – |
| C[C@@H]1CN(c2c(F)c(N)c3c(=O)c(C(=O)O)cn(C4CC4)c3c2F)C[C@H](C)N1 [SPARFLOXACIN] | Not Active | Not Active | Not Active | Not Active | Not Active | – | – | – | – | – | – | – | – |
| CC1(C)O[C@@H]2C[C@H]3[C@@H]4CCC5=CC(=O)C=C[C@]5(C)[C@@]4(F)[C@@H](O)C[C@]3(C)[C@]2(C(=O)CO)O1 [TRIAMCINOLONE ACETONIDE] | Not Active | Not Active | Not Active | Not Active | Not Active | – | – | – | – | – | – | – | – |
| CSc1ccc(/C=C2/C(C)=C(CC(=O)O)c3cc(F)ccc32)cc1 [SULINDAC SULFIDE] | Not Active | Not Active | Not Active | Not Active | Not Active | – | – | – | – | – | – | – | – |
| Nc1c2c(nc3ccccc13)CCCC2 [TACRINE] | Not Active | Not Active | Not Active | Not Active | Not Active | – | – | – | – | – | – | – | – |
| CN1CCN(CCCN2c3ccccc3Sc3ccc(Cl)cc32)CC1 [PROCHLORPERAZINE] | – | – | Not Active | Not Active | – | 34 | 16 | – | – | – | – | 950 | 543 |
| N[C@@H](Cc1ccc(O)c(O)c1)C(=O)O [LEVODOPA] | Not Active | Not Active | Not Active | Not Active | Not Active | – | – | – | – | – | – | – | – |
| O=NN(CCCl)C(=O)NC1CCCCC1 [LOMUSTINE] | Not Active | Not Active | Not Active | Not Active | Not Active | – | – | – | – | – | – | – | – |
| Cc1c(C)c2c(c(C)c1O)CCC(C)(COc1ccc(CC3SC(=O)NC3=O)cc1)O2 (stereo not drawn) [TROGLITAZONE] | Not Active | Not Active | Not Active | Not Active | Not Active | – | – | – | – | – | – | – | – |
| CCOC(=O)N1CCC(=C2c3ccc(Cl)cc3CCc3cccnc32)CC1 [LORATADINE] | Not Active | Not Active | Not Active | Not Active | Not Active | – | – | – | – | – | – | – | – |
| Cc1cccc(N(C)C(=S)Oc2ccc3ccccc3c2)c1 [TOLNAFTATE] | Not Active | Not Active | Not Active | Not Active | Not Active | – | – | – | – | – | – | – | – |
| NC[C@H]1CC[C@H](C(=O)O)CC1 [TRANEXAMIC ACID] | Not Active | Not Active | Not Active | Not Active | Not Active | – | – | – | – | – | – | – | – |
| CC[C@@H](CO)NC(=O)[C@@H]1C=C2c3cccc4[nH]cc(c34)C[C@H]2N(C)C1 [METHYLERGONOVINE] | – | Not Active | Not Active | Not Active | Not Active | – | – | – | – | – | – | 4.07 | 2.33 |
| c1ccc([C@H]2CN3CCSC3=N2)cc1 [LEVAMISOLE] | Not Active | Not Active | Not Active | Not Active | Not Active | – | – | – | – | – | – | – | – |
| OCCN(CCO)c1nc(N2CCCCC2)c2nc(N(CCO)CCO)nc(N3CCCCC3)c2n1 [DIPYRIDAMOLE] | Not Active | Not Active | Not Active | Not Active | Not Active | – | – | – | – | – | – | – | – |
